In patent publication US20050019746A1, “Apoptosis-related kinase/GPCRs” (EiRx Therapeutics Limited, priority 2003, published 2005):
Entries after “also recorded” stand apart in the source; their conditions may differ.

How the values were obtained:
Assay type in all cases: cell-based, human
[1] = tested on: target gene mRNA in DU145 cells; experiment: Knockdown by RNAi, QPCR, DU145 cells; settings: DU145, 24 hrs post transfection, relative to missense control
Method: (§1) These siRNA oligos are initially tested for efficacy in a cell line in which the gene is expressed for example in the Hela, U251, TF1 or DU145 cell lines. Cells are plated at a density of between 7.5-10×10^4 in each well of a 6 well plate and incubated at 37° C. overnight in DMEM culture medium (1× Dulbeccos modified Eagles medium (Sigma D2554), 0.004% folic acid, 4 mM L-glutamine, 0.37% sodium bicarbonate, 0.1 mM sodium pyruvate) containing 10% fetal calf serum (FCS). 2 μg of duplex siRNA is transfected into cells using DMRIE-C reagent (Invitrogen 10459-014) according to methods described in U.S. Patent Application No. 60/498,488. In brief, to prepare 1 ml of a transfection solution 2 μg of siRNA duplex in added to 1 ml of Optimem (Gibco), to which 8 μl of DMRIE C reagent is added. Transfection mix is added directly to the cells and incubated for 4 hrs at 37° C. Post this 4 hr incubation, transfection solution is removed and cells are refed with fresh culture medium and incubated for a further 24 hrs. An additional medium change is required at this point to minimise toxicity of the transfection procedure. Cells are harvested at 24 or 48 hrs post transfection for analysis of mRNA expression. […]
(§2) After DMRIE transfections with siRNA Oligos against the apoptosis associated genes identified herein, or controls, cells are harvested at 24 or 48 hours post transfection as stated previously. […] RNA is quantified by spectrophotometric analysis and 1 μg is reverse transcribed into cDNA using SuperScriptII RNAseH-Reverse Transcriptase (Invitrogen 18064-014). […] QPCR primers are designed to amplify a PCR product of approximately 100 to 300 nucleotides in length from the CDS, following the guidelines outlined in the Quantitect SYBR Green PCR handbook from Qiagen.
(§3) Two template standards are used for quantitative PCR assessment of mRNA levels: • 1. A control RPS13 i.e. Ribosomal Protein Sub unit 13 (NM_001017) amplified PCR product diluted to [1000,100,10,1 and 0.1 fg] respectively, used to quantify the level of transcript; • 2. […]

A549 cells = experiment: Anchorage Independence/Soft Agar Assay, A549; parameters: PERCENTAGE SURVIVAL RELATIVE TO MS, A549, n = 2: tested at 2 µg; settings: soft agar; for PERCENTAGE SURVIVAL RELATIVE TO MS, A549, n = 1: experiment n = 1; for PERCENTAGE SURVIVAL RELATIVE TO MS, A549, n = 2: experiment n = 2
Method in brief: (§4)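 Cells were transfected for 4 h with 2 μg siRNA against target genes, then seeded at 5×10^4 cells/well in 0.05% agar/medium and grown 12/14 days at 37 °C, 5% CO2. Crystal violet-stained colonies were counted at 4× and morphology assessed; survival expressed relative to missense siRNA control.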

HCT15 cells = experiment: Anchorage Independence/Soft Agar Assay, HCT15; parameters: PERCENTAGE SURVIVAL RELATIVE TO MS, HCT15, n = 2: tested at 2 µg; PERCENTAGE SURVIVAL RELATIVE TO MS, HCT15, n = 1: tested at 2 µg siRNA; settings: soft agar; for PERCENTAGE SURVIVAL RELATIVE TO MS, HCT15, n = 1: experiment n = 1; for PERCENTAGE SURVIVAL RELATIVE TO MS, HCT15, n = 2: experiment n = 2
Method in brief: as §4

MCF7 cells = experiment: Anchorage Independence/Soft Agar Assay, MCF7; parameters: PERCENTAGE SURVIVAL RELATIVE TO MS, MCF7, n = 2: tested at 2 µg; settings: soft agar; for PERCENTAGE SURVIVAL RELATIVE TO MS, MCF7, n = 1: experiment n = 1; for PERCENTAGE SURVIVAL RELATIVE TO MS, MCF7, n = 2: experiment n = 2
Method in brief: as §4

cancer cell lines = experiment: Anchorage Independence/Soft Agar Assay, summary over the cell lines; settings: 14-day anchorage independent assay, over the cell lines examined
Method: The Anchorage Independence/Soft Agar Assay allows assessment of the influence of modulation of gene expression on clonal tumouroid formation by observing and quantifying tumouroid morphology and colony number over an extended period of logarithmic growth thereby ascertaining any cell death is induced.
Cells are seeded into a 6-well plate and allowed to adhere overnight at 37° C. in a humidified atmosphere containing 5% CO2 in air. Cells are next transfected with siRNA Oligomers, at a concentration of 2 μg, against the genes of interest. Transfections continued for 4 hrs after which the transfection solution is removed and cells are refed with fresh medium and allowed incubate overnight. Transfected cells are next harvested for seeding into soft agar assay as described below. Cells are seeded at 5×10^4 cells per well of a 6 well plate and incubated over a 12/14-Day period whilst proliferating in a 0.05% Agar/Medium cell suspension at 37° C. in a humidified atmosphere containing 5% CO2 in air. Colonies formed are subsequently stained with Crystal Violet, their morphology is assessed and colonies formed are enumerated at a 4× magnification.
The cytotoxic effect of each gene is determined by a reduction in colony number compared to our MS control, but any influence on the morphology of the colony is also noted.
As an internal reference, the known survival gene ‘Survivin’ was also targeted by siRNA.

[2] = tested on: target gene mRNA in U251 cells; experiment: Knockdown by RNAi, QPCR, U251 cells; settings: U251, 24 hrs post transfection, relative to missense control
Method: as §1, §2, §3

Substance | % Knockdown by RNAi, DU145 [1] | PERCENTAGE SURVIVAL RELATIVE TO MS, A549, n = 1 (A549 cells) | PERCENTAGE SURVIVAL RELATIVE TO MS, A549, n = 2 (A549 cells) | PERCENTAGE SURVIVAL RELATIVE TO MS, HCT15, n = 1 (HCT15 cells) | PERCENTAGE SURVIVAL RELATIVE TO MS, HCT15, n = 2 (HCT15 cells) | PERCENTAGE SURVIVAL RELATIVE TO MS, MCF7, n = 1 (MCF7 cells) | PERCENTAGE SURVIVAL RELATIVE TO MS, MCF7, n = 2 (MCF7 cells) | cell death / apoptosis in the soft agar assay (cancer cell lines) | % Knockdown by RNAi, U251 [2]
siRNA FLT4: sense GUACGGCAACCUCUCCAACtt, antisense GUUGGAGAGGUUGCCGUACtt (sense GUACGGCAACCUCUCCAACTT; antisense GUUGGAGAGGUUGCCGUACTT; chemistry not given here) | 85% |  |  |  |  |  |  |  | 
siRNA GRAF: siRNA duplex, sense GCGGAAGUUUGCAGAUUCCtt, antisense GGAAUCUGCAAACUUCCGCtt; same in Tables 9 and 11 (sense GCGGAAGUUUGCAGAUUCCTT; antisense GGAAUCUGCAAACUUCCGCTT; chemistry not given here) | 84.4% |  |  |  |  |  |  |  | 
siRNA MAK: sense GAAGCCAAGCAUGGGUGUUtt, antisense AACACCCAUGCUUGGCUUCtt (sense GAAGCCAAGCAUGGGUGUUTT; antisense AACACCCAUGCUUGGCUUCTT; chemistry not given here) | 19% |  |  |  |  |  |  |  | 
siRNA MKNK: sense UACAUGGCCCCUGAGGUAGtt, antisense CUACCUCAGGGGCCAUGUAtt (sense UACAUGGCCCCUGAGGUAGTT; antisense CUACCUCAGGGGCCAUGUATT; chemistry not given here) |  | 85% | 21.6% | 66.3% | 90.9% | 25.9% | 4% | induced cell death consistently in 2 of the cell lines examined | 
siRNA MPSK1: sense GGGUUAUGCCCACAGAGACtt, antisense GUCUCUGUGGGCAUAACCCtt (sense GGGUUAUGCCCACAGAGACTT; antisense GUCUCUGUGGGCAUAACCCTT; chemistry not given here) |  | 59.4% | 19.5% | 42.3% | 62.2% | 35.8% | 30.3% | significant cell death in all cell lines | 
siRNA NTKL: siRNA duplex, sense UGUGGAGCUGAUGAAGCACtt, antisense GUGCUUCAUCAGCUCCACAtt; same in Tables 9 and 11 (sense UGUGGAGCUGAUGAAGCACTT; antisense GUGCUUCAUCAGCUCCACATT; chemistry not given here) |  |  |  |  |  |  |  |  | 37%
siRNA P14KB: sense GCUACGGAAGCUGAUCCUCtt, antisense GAGGAUCAGCUUCCGUAGCtt (sense GCUACGGAAGCUGAUCCUCTT; antisense GAGGAUCAGCUUCCGUAGCTT; chemistry not given here) |  |  |  |  |  |  |  |  | 36%
siRNA PSKH1: sense GAACCUGCACCGCUCCAUAtt, antisense UAUGGAGCGGUGCAGGUUCtt (sense GAACCUGCACCGCUCCAUATT; antisense UAUGGAGCGGUGCAGGUUCTT; chemistry not given here) |  | 65.8% | 32.5% | 37.2% | 41% | 82.6% | 11.9% | modulates apoptosis; also recorded: significant cell death in all cell lines | 
siRNA Survivin: positive control siRNA, sense GAACUGGCCCUUCUUGGAGtt, antisense CUCCAAGAAGGGCCAGUUCtt (sense GAACUGGCCCUUCUUGGAGTT; antisense CUCCAAGAAGGGCCAGUUCTT; chemistry not given here) [reference compound] |  | 53% | 17.7% | 71.5% | 48.6% | 80.3% | 50.3% | induced cell death in all cell lines | 47%
